Measured values as given in US7825256B2, “Inducible nitric oxide synthase dimerization inhibitors” (Kalypsys, Inc., priority 2004, dated 2010).

Test system: rat
Test: Capsaicin test (topical capsaicin allodynia)
Format: in vivo
Source text: Subcutaneous injection of dilute capsaicin into the rat hind paw produces transient but pronounced hyperalgesia, allodynia and pain. This effect may be mitigated by pretreatment with a suitable agent, such as a topical anaesthetic or analgesic, and the extent of this mitigation quantified by evaluation of pain-related behaviors in response to noxious or innocuous stimuli as described above; rats pretreated with a known analgesic display fewer pain and allodynia related behaviors than controls. Compounds may be evaluated for their efficacy as potential analgesics in this manner as well.
Male Lewis rats weighing between 180 and 250 grams are used. The right hind paw is dipped into vehicle (100% acetone) or compound in vehicle for 30 seconds and then allowed to air-dry for 30 sec. To prevent the animal from licking the compound off the paw, the paw is wiped twice with a wet paper towel. At 15 min after application of vehicle or compound, 0.1 mg in 10 μL capsaicin is injected into right hind paw. Measurement of allodynia is performed 0.5 to 1 hour after capsaicin injection.
One procedure for quantifying allodynia measures the rat behavioral response to presentation of von Frey filaments of increasing diameter. Each rat is placed in a small, clear cage on an elevated screen. Beginning with 4.31, the von Frey hair is presented perpendicularly to the right mid-plantar hind paw with sufficient force to cause slight buckling, for 6-8 seconds. If presentation lifts the hind paw it is disregarded, as it changes the nature of the stimulus. A positive response is noted if the paw is sharply withdrawn upon onset or offset of stimulus. Ambulation is considered an ambiguous response and the presentation is repeated. Stimuli are presented in a consecutive fashion. A positive response would call for the presentation of the immediately weaker weight filament next; likewise, no response would call for the immediately stronger. Presentations continue until a series of six consecutive responses from the first change is logged. The next rat is then tested. This procedure is standard in the art for the measurement of allodynia, but any other method known in the art which provides adequate sensitivity and reproducibility may be substituted.

[1] = at 0.5 hr after capsaicin injection
[2] = at 1 hr after capsaicin injection

For `CN(CCCNCc1ccc2c(c1)OCO2)c1nc(-n2ccnc2)ns1` [Example 2, N′-Benzo[1,3]dioxol-5-ylmethyl-N-(3-imidazol-1-yl-[1,2,4]thiadiazol-5-yl)-N-methyl-propane-1,3-diamine], the “Topical Capsaicin Allodynia” value [1] was “+ at 0.5 hr ((+) = >15% inhibition)” and the “Topical Capsaicin Allodynia” value [2] was “+ at 1 hr ((+) = >15% inhibition)”.

In the case of `Cc1cc(C2CCCN2C(=O)NCCc2ccc3c(c2)OCO3)nc(-n2ccnc2)n1` (stereo not drawn) [Example 4, 2-(2-Imidazol-1-yl-6-methyl-pyrimidin-4-yl)-pyrrolidine-1-carboxylic acid (2-benzo[1,3]dioxol-5-yl-ethyl)-amide], the “Topical Capsaicin Allodynia” value [1] is reported as “− at 0.5 hr ((−) = <15% inhibition)” and the “Topical Capsaicin Allodynia” value [2] is reported as “+ at 1 hr ((+) = >15% inhibition)”.

With `Cc1cc(C2CCCN2C(=O)CNCc2ccc3c(c2)OCO3)nc(-n2ccnc2)n1` (stereo not drawn) [Example 5] the “Topical Capsaicin Allodynia” value [1] was “+ at 0.5 hr ((+) = >15% inhibition)” and the “Topical Capsaicin Allodynia” value [2] was “− at 1 hr ((−) = <15% inhibition)”.
